Molecules are shown by their SMILES. The source made the active and inactive calls.

Data set [1] has as its system MIA PaCa-2. Briefly: Antiproliferative activity against human MIAPaCa2 cells assessed as growth inhibition after 96 hrs by MTS assay relative to SOP1812. Format: functional. A general note: Formazan colour is commonly taken as a measure of viable cells.
Data set [2] concerns MIA PaCa-2. Briefly: Antitumor activity against human MIAPaCa2 cells xenografted in mouse assessed as change in tumor volume at 15 mg/kg, iv administered twice per week for 28 days and measured at day 28 by Caliper method relative to control. Format: functional. To be noted: time 28 day. (In general: In xenograft studies the graft and the host belong to different species.)
Data set [3] concerns MIA PaCa-2. Briefly: Antitumor activity against human MIAPaCa2 cells xenografted in mouse assessed as change in tumor volume at 15 mg/kg, iv administered twice per week for 28 days and measured at day 53 by Caliper method relative to control. Format: functional. To be noted: time 28 day.
Data set [4] concerns Mus musculus. The data set can be described thus: Down regulation of MAPK11 expression in mouse xenografted with human MIAPaCa2 cells at 15 mg/kg, iv administered twice per week for 28 days and measured on day 28 by Western blot analysis. To be noted: time 28.0 day. The class given is functional, organism-based.
Data set [5] concerns Mus musculus. Briefly: Effect on hTERT expression in mouse xenografted with human MIAPaCa2 cells at 15 mg/kg, iv administered twice per week for 28 days and measured on day 28 by Western blot analysis. Format: functional, organism-based. To be noted: time 28.0 day.
A further data set relates to Quadruplex DNA. Briefly: Binding affinity to G4 quadruplex DNA in human PANC1 cells assessed as increase in number of BG4 foci at 400 nM after 24 hrs by immunofluorescence based confocal microscopic analysis. The class given is cell-based. To be noted: PANC-1.
Another data set has as its system CAPAN-1. The data set can be described thus: Antiproliferative activity against human Capan1 cells assessed as growth inhibition after 96 hrs by SRB assay. Format: functional. A general note: Sulforhodamine B stains cellular protein and so reports cell mass.
In another data set the test system is BXPC-3. Briefly: Antiproliferative activity against human BxPC3 cells assessed as growth inhibition after 96 hrs by SRB assay. Format: functional.
The subject of a further data set is PANC-1. Briefly: Antiproliferative activity against human PANC1 cells assessed as growth inhibition after 96 hrs by SRB assay. The class given is functional.
Data set [6] has as its system MIA PaCa-2. The data set can be described thus: Antiproliferative activity against human MIAPaCa2 cells assessed as growth inhibition after 96 hrs by SRB assay. Format: functional.
The nature of data set [7]: Half life in mouse xenografted with human MIAPaCa2 cells at 9.1 mg/kg, iv administered as single dose. The class given is ADME, organism-based. To be noted: in vivo.
Data set [8] can be described thus: Clearance in mouse xenografted with human MIAPaCa2 cells at 9.1 mg/kg, iv administered as single dose. Format: ADME, organism-based. To be noted: in vivo.
Data set [9] is described as follows: Volume of distribution at steady state in mouse xenografted with human MIAPaCa2 cells at 9.1 mg/kg, iv administered as single dose. Format: ADME, organism-based. To be noted: in vivo, read-out: Vdss.
A short description of data set [10]: Apparent volume of distribution in mouse xenografted with human MIAPaCa2 cells at 9.1 mg/kg, iv administered as single dose. Format: ADME, organism-based. To be noted: in vivo, read-out: Vz.
Data set [11] can be described thus: Cmax in mouse xenografted with human MIAPaCa2 cells at 9.1 mg/kg, iv administered as single dose. To be noted: in vivo. The arrangement: route intravenous, dose 9.1 mg/kg. The class given is ADME, organism-based.
A short description of data set [12]: AUC in mouse xenografted with human MIAPaCa2 cells at 9.1 mg/kg, iv administered as single dose. The class given is ADME, organism-based. On the set-up: dose 9.1 mg/kg. To be noted: in vivo.
Data set [13] can be described thus: AUC (infinity) in mouse xenografted with human MIAPaCa2 cells at 9.1 mg/kg, iv administered as single dose. On the set-up: route intravenous, time infinity, dose 9.1 mg/kg. The class given is ADME, organism-based. To be noted: in vivo.
A short description of data set [14]: Half life in mouse xenografted with human MIAPaCa2 cells at 14 mg/kg, iv administered as single dose. Format: ADME, organism-based. To be noted: in vivo.
The nature of data set [15]: Clearance in mouse xenografted with human MIAPaCa2 cells at 14 mg/kg, iv administered as single dose. To be noted: in vivo. The class given is ADME, organism-based.
A short description of data set [16]: Volume of distribution at steady state in mouse xenografted with human MIAPaCa2 cells at 14 mg/kg, iv administered as single dose. The class given is ADME, organism-based. To be noted: in vivo, read-out: Vdss.
The nature of data set [17]: Apparent volume of distribution in mouse xenografted with human MIAPaCa2 cells at 14 mg/kg, iv administered as single dose. The class given is ADME, organism-based. To be noted: in vivo, read-out: Vz.
Data set [18] in a line: Cmax in mouse xenografted with human MIAPaCa2 cells at 14 mg/kg, iv administered as single dose. The class given is ADME, organism-based. To be noted: in vivo. The arrangement: route intravenous, dose 14 mg/kg.
The nature of data set [19]: AUC in mouse xenografted with human MIAPaCa2 cells at 14 mg/kg, iv administered as single dose. Format: ADME, organism-based. The arrangement: dose 14 mg/kg. To be noted: in vivo.
A short description of data set [20]: AUC (infinity) in mouse xenografted with human MIAPaCa2 cells at 14 mg/kg, iv administered as single dose. The class given is ADME, organism-based. The arrangement: route intravenous, time infinity, dose 14 mg/kg. To be noted: in vivo.
Data set [21] deals with MIA PaCa-2. The data set can be described thus: Antitumor activity against human MIAPaCa2 cells xenografted in mouse assessed as mean tumor volume at 10 mg/kg, iv administered twice per week for 28 days and measured at day 28 by Caliper method (reference value: 0.45 +/- 0.18 cm3). Format: functional. To be noted: time 28 day.
The test system of data set [22] is MIA PaCa-2. Briefly: Antitumor activity against human MIAPaCa2 cells xenografted in mouse assessed as change in tumor volume at 10 mg/kg, iv administered twice per week for 28 days and measured at day 28 by Caliper method relative to control. The class given is functional. To be noted: time 28 day.
Data set [23] relates to MIA PaCa-2. The data set can be described thus: Antitumor activity against human MIAPaCa2 cells xenografted in mouse assessed as mean tumor volume at 10 mg/kg, iv administered twice per week for 28 days and measured at day 53 by Caliper method (reference value: 1.60 +/- 0.44 cm3). Format: functional. To be noted: time 28 day.
Data set [24] concerns MIA PaCa-2. Briefly: Antitumor activity against human MIAPaCa2 cells xenografted in mouse assessed as change in tumor volume at 10 mg/kg, iv administered twice per week for 28 days and measured at day 53 by Caliper method relative to control. The class given is functional. To be noted: time 28 day.
Data set [25] deals with MIA PaCa-2. Briefly: Antitumor activity against human MIAPaCa2 cells xenografted in mouse assessed as change in tumor volume at 1 mg/kg, iv administered twice per week for 28 days and measured at day 53 by Caliper method relative to control. Format: functional. To be noted: time 28 day.
Data set [26] has as its system Mus musculus. Briefly: Down regulation of MAPK11 expression in mouse xenografted with human MIAPaCa2 cells at 10 mg/kg, iv administered twice per week for 28 days and measured on day 28 by Western blot analysis. To be noted: time 28.0 day. The class given is functional, organism-based.
The subject of data set [27] is Mus musculus. The data set can be described thus: Effect on hTERT expression in mouse xenografted with human MIAPaCa2 cells at 10 mg/kg, iv administered twice per week for 28 days and measured on day 28 by Western blot analysis. Format: functional, organism-based. To be noted: time 28.0 day.

Regarding `O=C1c2cc(-c3ccc(CN4CCCCCC4)cc3)c3c4c(cc(NCCN5CCCC5)c(c24)C(=O)N1CCCN1CCOCC1)C(=O)N(CCCN1CCOCC1)C3=O`, in the data set with MIA PaCa-2 [1], the “growth inhibition (GI)” value turned out to be 30.7%.

As to `Nc1ccn([C@@H]2O[C@H](CO)[C@@H](O)C2(F)F)c(=O)n1` [GEMCITABINE], the figures for the Activity in the data set on MIA PaCa-2 [2] and in the data set with MIA PaCa-2 [3] were -71.1% and -75.6%, respectively. Also, the inhibition result in the data set on Mus musculus [4] was “inactive”. For the same compound, the outcome in the data set with Mus musculus [5] was inactive.

With `O=C1c2cc(-c3ccc(CNC4CCCC4)cc3)c3c4c(cc(NCCN5CCCC5)c(c24)C(=O)N1CCCN1CCOCC1)C(=O)N(CCCN1CCOCC1)C3=O`, the “growth inhibition (GI)” value with MIA PaCa-2 [1] was 54.9%.

Consider `CCN(CC)Cc1ccc(-c2cc3c4c(c(NCCN5CCCC5)cc5c4c2C(=O)N(CCCN2CCOCC2)C5=O)C(=O)N(CCCN2CCOCC2)C3=O)cc1`, for which the “growth inhibition (GI)” value in the data set with MIA PaCa-2 [1] came out at 31.1%.

In the case of `O=C1c2cc(-c3ccc(CN4CCOCC4)cc3)c3c4c(cc(NCCN5CCCC5)c(c24)C(=O)N1CCCN1CCOCC1)C(=O)N(CCCN1CCOCC1)C3=O`, the “growth inhibition (GI)” value in the data set on MIA PaCa-2 [1] is 19.2%.

Regarding `O=C1c2cc(-c3ccccc3CN3CCCC3)c3c4c(cc(NCCN5CCCC5)c(c24)C(=O)N1CCCN1CCOCC1)C(=O)N(CCCN1CCOCC1)C3=O`, the “growth inhibition (GI)” value with MIA PaCa-2 [1] is given as 2.7%.

One may read the GI50 as the concentration at which growth is held to half of that of the control. By half-life is commonly meant the time needed for the level to fall by half in the phase considered. Low values mean fast loss, high ones slow loss. Broadly, the clearance is the volume of plasma or blood freed of the substance per unit of time. A lower clearance goes with a low capacity for elimination. A word on the Cmax: it is the maximum level reached in the sampled fluid or tissue. Usually AUC stands for the area under the concentration-time curve, a measure of exposure. A higher AUC goes with more exposure. Usually AUC(0-inf) stands for total exposure, with the tail of the curve extrapolated. As for `O=C1c2ccc3c4c(c(NCCN5CCCC5)cc(c24)C(=O)N1CCCN1CCOCC1)C(=O)N(CCCN1CCOCC1)C3=O`, the result with Quadruplex DNA was Active. Moreover, the GI50 in the data set on CAPAN-1 was determined as 26.5 nM; in the data set on BXPC-3, 15.5 nM; with PANC-1, 15.6 nM; with MIA PaCa-2 [6], 9 nM. In addition, the values for the half-life in [7] and in data set [14] were 1980 min and 960 min, respectively. In addition, the figures for the clearance in [8] and in data set [15] were 10.9 mL/min/kg and 8.1 mL/min/kg, respectively. In addition, the Vd in [9] was 5.2 L/kg; in [10] it was 27.8 L/kg; in data set [16], 2.2 L/kg; in data set [17], 11.8 L/kg. For the same compound, the figures for the Cmax in data set [11] and in data set [18] were 4520 ng/mL and 22100 ng/mL, respectively. The AUC is 11100 ng·h/mL in [12] and 30600 ng·h/mL in data set [19]. Moreover, the total exposure AUC(0-inf) in data set [13] is 14500 ng·h/mL; in [20], 34400 ng·h/mL. Also, the Activity in the data set with MIA PaCa-2 [21] was 0.16 cm3; with MIA PaCa-2 [22], -64.4%; with MIA PaCa-2 [2] it was -73.3%; in the data set with MIA PaCa-2 [23] it was 0.63 cm3; with MIA PaCa-2 [24], -60.6%; with MIA PaCa-2 [3] it was -78.1%. Besides, the Activity in the data set with MIA PaCa-2 [25] is -90.6%. In addition, the inhibition entry in the data set on Mus musculus [4] is “Active”. Also, in the data set with Mus musculus [26], the inhibition entry was “inactive”. Moreover, the outcome with Mus musculus [27] and with Mus musculus [5] was inactive.

For `O=C1c2cc(-c3ccc(CN4CCCCC4)cc3)c3c4c(cc(NCCN5CCCC5)c(c24)C(=O)N1CCCN1CCOCC1)C(=O)N(CCCN1CCOCC1)C3=O`, the “growth inhibition (GI)” value in the data set on MIA PaCa-2 [1] turned out to be 32%.

Turning to `O=C(c1ccc(-c2cc3c4c(c(NCCN5CCCC5)cc5c4c2C(=O)N(CCCN2CCOCC2)C5=O)C(=O)N(CCCN2CCOCC2)C3=O)cc1)N1CCCC1`, the “growth inhibition (GI)” value in the data set with MIA PaCa-2 [1] is recorded as 10.9%.

Regarding `CN1CCN(Cc2ccc(-c3cc4c5c(c(NCCN6CCCC6)cc6c5c3C(=O)N(CCCN3CCOCC3)C6=O)C(=O)N(CCCN3CCOCC3)C4=O)cc2)CC1`, the “growth inhibition (GI)” value in the data set with MIA PaCa-2 [1] amounted to 20.2%.

Take `O=C1c2cc(-c3cccc(CN4CCCC4)c3)c3c4c(cc(NCCN5CCCC5)c(c24)C(=O)N1CCCN1CCOCC1)C(=O)N(CCCN1CCOCC1)C3=O`: the “growth inhibition (GI)” value in the data set with MIA PaCa-2 [1] stood at 19.7%.

As to `O=C1c2cc(-c3ccc(N4CCCC4)cc3)c3c4c(cc(NCCN5CCCC5)c(c24)C(=O)N1CCCN1CCOCC1)C(=O)N(CCCN1CCOCC1)C3=O`, the “growth inhibition (GI)” value in the data set on MIA PaCa-2 [1] was 1.9%.

Values taken from ChEMBL document CHEMBL4725390, “Asymmetrically Substituted Quadruplex-Binding Naphthalene Diimide Showing Potent Activity in Pancreatic Cancer Models” (ACS Med Chem Lett, 2020).
